Organism: Rattus norvegicus
Test: Open TG-GATES - Regimen: Single
Format: toxicity, organism-based, Sprague-Dawley
Parameters: regimen Single, gender Male, age 6 weeks
Conditions: in vivo, po, 10 mg/kg, route gavage, dose level Low; for APTT / Bas / Eos / Fbg / Hb / Ht / Lym / MCH / MCHC / MCV / Mono / Neu / PT / Plat / RBC / Ret / WBC: tissue Blood; for KIDNEY_L / KIDNEY_R / KIDNEY_TOTAL: tissue Kidney; for LIVER: tissue Liver; for A/G / ALP / ALT / AST / BUN / CRE / Ca / Cl / DBIL / GLC / IP / K / LDH / Na / PL / RALB / TBIL / TC / TG / TP / gamma-GTP: tissue Plasma

Compound: OCCOCCN1CCN(C(c2ccccc2)c2ccc(Cl)cc2)CC1 (configuration not stated) [HYDROXYZINE]
- TERMINAL_BW (3 h): 192.7 g
- APTT (3 h): 15.4 s
- Bas (3 h): 0.4%
- Eos (3 h): 0.6%
- Fbg (3 h): 276.8 mg/dL
- Hb (3 h): 12.7 g/dL
- Ht (3 h): 39.3%
- Lym (3 h): 80.6%
- MCH (3 h): 21.7 pg
- MCHC (3 h): 32.3%
- MCV (3 h): 67 fL
- Mono (3 h): 2.6%
- Neu (3 h): 15.2%
- PT (3 h): 15.1 s
- Plat (3 h): 113 x10_4/uL
- RBC (3 h): 587.8 x10_4/ul
- Ret (3 h): 9.1%
- WBC (3 h): 89.2 x10_2/uL
- KIDNEY_L (3 h): 0.8 g
- KIDNEY_R (3 h): 0.9 g
- KIDNEY_TOTAL (3 h): 1.7 g
- LIVER (3 h): 9 g
- A/G (3 h): 0.8
- ALP (3 h): 1362.6 IU/L
- ALT (3 h): 43.4 IU/L
- AST (3 h): 75.6 IU/L
- BUN (3 h): 11.2 mg/dL
- CRE (3 h): 0.2 mg/dL
- Ca (3 h): 11.1 mg/dL
- Cl (3 h): 105.2 meq/L
- DBIL (3 h): 0.016 mg/dL
- GLC (3 h): 176.6 mg/dL
- IP (3 h): 9.4 mg/dL
- K (3 h): 4.4 meq/L
- LDH (3 h): 80.4 IU/L
- Na (3 h): 141.6 meq/L
- PL (3 h): 137.2 mg/dL
- RALB (3 h): 2.4 g/dL
- TBIL (3 h): 0.064 mg/dL
- TC (3 h): 74.6 mg/dL
- TG (3 h): 46.2 mg/dL
- TP (3 h): 5.3 g/dL
- gamma-GTP (3 h): 1 IU/L
- TERMINAL_BW (6 h): 193.5 g
- APTT (6 h): 15.7 s
- Bas (6 h): 0%
- Eos (6 h): 0.8%
- Fbg (6 h): 285.2 mg/dL
- Hb (6 h): 12.8 g/dL
- Ht (6 h): 40.3%
- Lym (6 h): 75.8%
- MCH (6 h): 21.3 pg
- MCHC (6 h): 31.8%
- MCV (6 h): 67.1 fL
- Mono (6 h): 2.6%
- Neu (6 h): 20.2%
- PT (6 h): 15.2 s
- Plat (6 h): 114.7 x10_4/uL
- RBC (6 h): 601.2 x10_4/ul
- Ret (6 h): 9.2%
- WBC (6 h): 77.4 x10_2/uL
- KIDNEY_L (6 h): 0.9 g
- KIDNEY_R (6 h): 0.9 g
- KIDNEY_TOTAL (6 h): 1.7 g
- LIVER (6 h): 8.1 g
- A/G (6 h): 0.9
- ALP (6 h): 1554.6 IU/L
- ALT (6 h): 46.8 IU/L
- AST (6 h): 83.2 IU/L
- BUN (6 h): 9 mg/dL
- CRE (6 h): 0.2 mg/dL
- Ca (6 h): 10.9 mg/dL
- Cl (6 h): 106.2 meq/L
- DBIL (6 h): 0.006 mg/dL
- GLC (6 h): 175.2 mg/dL
- IP (6 h): 10.1 mg/dL
- K (6 h): 4.3 meq/L
- LDH (6 h): 80.2 IU/L
- Na (6 h): 142.8 meq/L
- PL (6 h): 139.4 mg/dL
- RALB (6 h): 2.5 g/dL
- TBIL (6 h): 0.062 mg/dL
- TC (6 h): 78.8 mg/dL
- TG (6 h): 32.4 mg/dL
- TP (6 h): 5.3 g/dL
- gamma-GTP (6 h): 0.8 IU/L
- TERMINAL_BW (9 h): 190.5 g
- APTT (9 h): 16.2 s
- Bas (9 h): 0%
- Eos (9 h): 0.4%
- Fbg (9 h): 288.8 mg/dL
- Hb (9 h): 12.8 g/dL
- Ht (9 h): 39.6%
- Lym (9 h): 71.2%
- MCH (9 h): 21.3 pg
- MCHC (9 h): 32.3%
- MCV (9 h): 65.7 fL
- Mono (9 h): 3%
- Neu (9 h): 24%
- PT (9 h): 15.2 s
- Plat (9 h): 118.3 x10_4/uL
- RBC (9 h): 601.8 x10_4/ul
- Ret (9 h): 8.2%
- WBC (9 h): 63.8 x10_2/uL
- KIDNEY_L (9 h): 0.9 g
- KIDNEY_R (9 h): 0.8 g
- KIDNEY_TOTAL (9 h): 1.7 g
- LIVER (9 h): 7.9 g
- A/G (9 h): 0.8
- ALP (9 h): 1271.4 IU/L
- ALT (9 h): 37.4 IU/L
- AST (9 h): 70.2 IU/L
- BUN (9 h): 9.2 mg/dL
- CRE (9 h): 0.2 mg/dL
- Ca (9 h): 10.7 mg/dL
- Cl (9 h): 106.8 meq/L
- DBIL (9 h): 0.012 mg/dL
- GLC (9 h): 184.6 mg/dL
- IP (9 h): 10.2 mg/dL
- K (9 h): 4.1 meq/L
- LDH (9 h): 78.8 IU/L
- Na (9 h): 142.4 meq/L
- PL (9 h): 139.4 mg/dL
- RALB (9 h): 2.5 g/dL
- TBIL (9 h): 0.062 mg/dL
- TC (9 h): 81.4 mg/dL
- TG (9 h): 29.4 mg/dL
- TP (9 h): 5.5 g/dL
- gamma-GTP (9 h): 1 IU/L
- TERMINAL_BW (24 h): 210.3 g
- APTT (24 h): 15 s
- Bas (24 h): 0%
- Eos (24 h): 1%
- Fbg (24 h): 276.8 mg/dL
- Hb (24 h): 12.7 g/dL
- Ht (24 h): 39.6%
- Lym (24 h): 73.4%
- MCH (24 h): 21.9 pg
- MCHC (24 h): 32%
- MCV (24 h): 68.5 fL
- Mono (24 h): 2.8%
- Neu (24 h): 22.6%
- PT (24 h): 16 s
- Plat (24 h): 121.3 x10_4/uL
- RBC (24 h): 578.6 x10_4/ul
- Ret (24 h): 8.8%
- WBC (24 h): 79 x10_2/uL
- KIDNEY_L (24 h): 0.9 g
- KIDNEY_R (24 h): 0.9 g
- KIDNEY_TOTAL (24 h): 1.8 g
- LIVER (24 h): 10.1 g
- A/G (24 h): 0.9
- ALP (24 h): 1714.2 IU/L
- ALT (24 h): 45.2 IU/L
- AST (24 h): 71.4 IU/L
- BUN (24 h): 14.2 mg/dL
- CRE (24 h): 0.2 mg/dL
- Ca (24 h): 11.4 mg/dL
- Cl (24 h): 106 meq/L
- DBIL (24 h): 0.02 mg/dL
- GLC (24 h): 177.6 mg/dL
- IP (24 h): 8.2 mg/dL
- K (24 h): 4.3 meq/L
- LDH (24 h): 104.2 IU/L
- Na (24 h): 142.8 meq/L
- PL (24 h): 147.4 mg/dL
- RALB (24 h): 2.6 g/dL
- TBIL (24 h): 0.058 mg/dL
- TC (24 h): 77.2 mg/dL
- TG (24 h): 69.4 mg/dL
- TP (24 h): 5.6 g/dL
- gamma-GTP (24 h): 1 IU/L

Reference: ChEMBL document CHEMBL3885861, “Open TG-GATES”
